One block for each molecule: values may come before it. Square brackets hold non-standard residues; d marks the D form. Peptide text beside a SMILES is read from it. * marks the point of attachment. Sta = CC(C)C[C@H](N)[C@@H](O)CC(=O)O; Isovaleryl = CC(C)CC(=O)*
Tests used:
Glutathione (GSH) assay = format: in vitro ADME; conditions: relative to t=0; for Area rel. [%] (GSH assay, NC): negative control: test item in phosphate buffer without GSH, time 90 min; for Area rel. [%] (GSH assay): with GSH, 37° C.
Experimental: Procedure: A standard GSH assay includes a phosphate buffer (720 μL), a GSH solution (40 μL, 100 mM) and the test solution of the test compound (20 μM in 10% DMSO in phosphate buffer (100 mM, pH 7.4)). As negative control (NC) serves the test item (20 μM in 10% DMSO in phosphate buffer (100 mM, pH 7.4) in phosphate buffer (760 μL).
Samples are prepared as follows: phosphate buffer (720 μL) and GSH solution (40 μL, 100 mM) were preincubated at 37° C., and 40 μL of the test item solution (or internal standard) added. Then […] of the assay mixture were mixed with 100 μL ACN were at the following time points: t=0, 30 and 90 min; in case of the test item, t=0 and 90 min in case of PC or NC. The samples were mixed for 2 min at 150 rpm, centrifuged at 16.1 (krcf). 5 μL of each samples were injected to a UPLC/HRMS system. The peak areas of the extracted ion chromatograms were determined using the standard software.

[1] = Microsome stability assay; format: in vitro ADME; conditions: for Area rel. [%] (liver microsomes, NC): 90 min, 1 µM, pH 7.4; for Area rel. [%] (liver microsomes, PC): positive control, relative to t=0
Experimental: Microsome Stability Assay The liver is the main organ of drug metabolism in the body. Subcellular fractions such as liver microsomes are useful in vitro models of hepatic clearance as they contain many of the drug metabolising enzymes found in the liver. Liver microsomes are subcellular fractions which contain membrane bound drug metabolising enzymes. The microsomes are incubated with the test compound at 37° C. in the presence of the co-factors, which initiates the reaction. The reaction is terminated by the addition of organic solvents containing internal standard. Following centrifugation, the supernatant is analysed on the LC-MS/MS. The disappearance of test compound is monitored over certain time period. Here, a microsome stability assay was used to investigate the metabolism of the compounds; using this assay it is possible to measure in vitro the intrinsic clearance or to identify metabolites formed. For a standard assay the following solutions were used: 360 μL Microsomal solution (1.1 mg/mL in phosphate buffer), 360 μL NADP-regeneration mix (containing NADP (10 mM), MgCl2 (50 mM), glucose-6-phosphate (50 mM), glucose-6-phosphate dehydrogenase (50 U/ml)) and 40 μL phosphate buffer (100 mM, pH 7.4). Diclofenac (10 μL, 200 μM) was used as positive control (360 μL Microsomal solution, 360 μL NADP-regeneration mix and 40 μL Phosphate buffer) and phosphate buffer (360 μL Microsomal solution, 360 μL NADP-regeneration mix) served as negative control. […] The following procedure was applied: 40 μL of the working solution was added to a pre-incubated solution containing the microsomal solution and the NADP-regeneration mix at 37° C./1500 rpm. Samples were prepared as follows: […] Samples were mixed at 1500 rpm for 2 min, centrifuged for 2 min at 16.1 krcf. 5 uL of each sample was injected to a UPLC/HRMS system and the peak areas of the extracted ion chromatograms were determined

Cathepsin B = Cathepsin B (Homo sapiens, UniProt P07858); assay: Activity test against cathepsin B (initial screen, Table 5); format: biochemical; set-up: dose or concentration left out as unconfirmed
Experimental: (§1) Activity Tests Against Cathepsin B, Cathepsin L and Rhodesain.
(§2) The determination of the activity of the inhibitors against hCatL and RD was performed in fluorescence-based assays in accordance with the assays described in Giroud et al., ChemMedChem 12 (2017), 257-270 and Schirmeister, Bioorganic & Medicinal Chemistry Letters 27 (2017) 45-50. The biological activities against hCatL were determined using Cbz-Phe-Arg-AMC as substrate, which releases AMC (7-amino-4-methylcoumarin) after amide bond cleavage by the enzyme. The proteolytic activity of the enzyme can be monitored spectrophotometrically by the increase of fluorescence intensity by release of AMC (emission at 460 nm) upon hydrolysis. An initial screen at an inhibitor concentration […] was performed to identify ligands with an inhibition of hCatL and RD higher than 80%.

hCatL = hCatL (Homo sapiens, UniProt P07711); assay: Fluorescence-based activity test against cathepsin L (Cbz-Phe-Arg-AMC); format: biochemical; set-up: dose or concentration left out as unconfirmed
Experimental: as §1, §2

thermolysin = molecular target: T1, thermolysin (Bacillus thermoproteolyticus, UniProt P00800); assay: Protease assay with azocasein: thermolysin; format: biochemical; conditions: 10 mM
T1 construct: purchased Sigma-Aldrich P1512
Experimental: (§3) Protease Assays with azocasein: Protease inhibition assays against the proteases papain, ficin, trypsin, pepsin and thermolysin were performed according to the protocol of Garcia-Carreño (loc. cit.) in a reaction buffer containing 25 mM TRIS-HCl, 0.15 M NaCl, pH 7.2 (or pH 3.5 for aspartic protease). The total assay volume was 47 μL buffer with 2 μL of the protease as well as 1 μL of suitable inhibitor or corresponding inhibitor solvent (100% MeoH or water). Final concentration of proteases was as follows: 2 mg/mL for papain (Sigma-Aldrich, P4762), 600 μg/mL for ficin (Sigma-Aldrich, F6008), 80 μg/mL for trypsin (Thermo Fisher, 23266), 60 mg/mL for pepsin (Sigma-Aldrich P6887)) and 2 μg/mL for thermolysin (Sigma-Aldrich, P1512).
(§4) Inhibitors were dissolved in 100% MeOH or water and added to the assay (1 μL); final concentration: 2% MeOH. Samples of control inhibitors were prepared as follows: (1) serine protease (trypsin): PMFS (2 mM) and soybean trypsin inhibitor (240 μM) (Sigma-Aldrich, T1021), (2) cysteine proteases (papain and ficin): iodacetamide (2 mM), (3) […] (pepsin): pepstatin A (1 μg/mL) (Sigma-Aldrich, P4265), (4) metalloprotease (thermolysin): EDTA (10 mM). […] Negative controls were performed with protease alone (without inhibitor) and MeOH at a final concentration of 2% (reference for activity of 100%). Extract absorbance controls were performed using inhibitor (1 μL in MeOH) without protease. Blanks were performed using 49 μL buffer and 1 μL MeOH.
(§5) Samples were incubated with buffer and suitable inhibitor (or without for negative controls) for 1 h at r.t. and the reaction was started afterward by adding 50 μl of […] substrate and incubated for 1 h at 37° C. After stopping the reaction with trichloracetic acid (TCA), the separation of the precipitate was accomplished by centrifugation at 6500 g for 5 min. The hydrolyzed substrate supernatant was incubated in an equal volume of 0.5 N NaOH for 5 min and the absorbance was measured at 440 nm. OD values of the protease control without inhibitor were used as reference for a 100% activity.
(§6) The log IC50 values were determined using the standard curves analyzing tool with four parameter logistic equation of SigmaPlot12 with technical triplicates. Propagation of error was calculated using the standard error and log IC50 values where the equation of error propagation is defined as Δy=0.43Δx/x.

pepsin = molecular target: T2, pepsin (Sus scrofa, UniProt P00791); assay: Protease assay with azocasein: pepsin; format: biochemical; conditions: 1 μg/mL
T2 construct: purchased Sigma-Aldrich P6887
Experimental: as §3, §4, §5, §6

hCatL, sequence (P07711 114-333): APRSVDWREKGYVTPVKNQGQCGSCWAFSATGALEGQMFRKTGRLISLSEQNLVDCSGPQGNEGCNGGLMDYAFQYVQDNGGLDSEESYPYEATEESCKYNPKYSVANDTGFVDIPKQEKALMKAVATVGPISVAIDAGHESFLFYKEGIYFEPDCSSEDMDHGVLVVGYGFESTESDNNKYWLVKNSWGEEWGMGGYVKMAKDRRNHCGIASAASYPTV
T2 sequence (P00791 60-385): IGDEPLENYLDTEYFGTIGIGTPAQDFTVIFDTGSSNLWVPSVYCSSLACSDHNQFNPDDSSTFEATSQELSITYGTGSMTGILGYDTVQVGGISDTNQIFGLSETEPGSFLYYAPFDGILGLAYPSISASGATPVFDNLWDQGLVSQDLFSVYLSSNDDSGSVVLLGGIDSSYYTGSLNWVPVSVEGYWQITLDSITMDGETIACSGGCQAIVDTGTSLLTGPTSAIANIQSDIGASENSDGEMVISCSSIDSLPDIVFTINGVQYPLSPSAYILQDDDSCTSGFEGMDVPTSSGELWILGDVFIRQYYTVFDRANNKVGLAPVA
T1 sequence (P00800 233-548): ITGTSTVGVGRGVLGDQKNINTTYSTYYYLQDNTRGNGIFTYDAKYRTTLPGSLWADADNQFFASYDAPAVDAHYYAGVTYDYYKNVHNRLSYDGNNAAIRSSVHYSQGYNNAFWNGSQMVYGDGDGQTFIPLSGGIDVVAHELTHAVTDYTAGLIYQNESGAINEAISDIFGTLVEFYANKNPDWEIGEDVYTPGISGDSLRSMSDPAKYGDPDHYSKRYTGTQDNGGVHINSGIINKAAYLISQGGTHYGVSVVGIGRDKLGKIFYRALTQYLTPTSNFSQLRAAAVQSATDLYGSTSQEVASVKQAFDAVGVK

Compound: CCCCC/C=C/C(=O)N[C@@H](Cc1ccc(O)cc1)C(=O)N[C@@H](/C=C/C(=O)O)CCCCN [drawing 52]
- Area rel. [%] (GSH assay, NC) (Glutathione (GSH) assay): 103.9%
- Area rel. [%] (GSH assay) (Glutathione (GSH) assay; pH 7.4, time 30 min): 104.3%
- Area rel. [%] (GSH assay) (Glutathione (GSH) assay; pH 7.4, time 90 min): 98.0%

Compound: CCCCC/C=C/C(=O)N[C@@H](Cc1ccc(O)cc1)C(=O)N[C@@H](/C=C/C(=O)O)CCCCN [drawing 60]
- Area rel. [%] (liver microsomes, NC) [1]: 95.7%

Compound: CCCCC/C=C/C(=O)N[C@@H](Cc1ccc(O)cc1)C(=O)N[C@@H](/C=C/C(=O)O)CCCNC(=N)N [drawing 48]
- inhibition (Cathepsin B): 15%
- inhibition (hCatL): 20%

- Area rel. [%] (liver microsomes, PC) ([1]; time 10 min): 49.0%
- Area rel. [%] (liver microsomes, PC) ([1]; time 35 min): 3.8%
Compound: O=C(O)Cc1ccccc1Nc1c(Cl)cccc1Cl [Diclo, Diclofenac, reference compound]

Compound: CCCCC/C=C/C(=O)N[C@@H](Cc1ccc(O)cc1)C(=O)N[C@H](/C=C/C(=O)O)CCCNC(=N)N [drawing 51]
- Area rel. [%] (GSH assay, NC) (Glutathione (GSH) assay): 91.9%
- Area rel. [%] (GSH assay) (Glutathione (GSH) assay; pH 7.4, time 30 min): 93.3%
- Area rel. [%] (GSH assay) (Glutathione (GSH) assay; pH 7.4, time 90 min): 94.2%

Compound: CCCCC/C=C/C(=O)N[C@@H](Cc1ccc(O)cc1)C(=O)N[C@H](/C=C/C(=O)O)CCCNC(=N)N [drawing 45]
- inhibition (Cathepsin B): 50%
- inhibition (hCatL): 95%

Compound: O=C(O)CN(CCN(CC(=O)O)CC(=O)O)CC(=O)O [EDTA, reference compound]
- inhibited enzyme activity (thermolysin), control inhibitor (thermolysin): > 95%

- Area rel. [%] (GSH assay, NC) (Glutathione (GSH) assay): 108.9%
- Area rel. [%] (GSH assay) (Glutathione (GSH) assay; pH 7.4, time 90 min): 112.8%
Compound: CC(=O)N[C@@H](Cc1ccc(O)cc1)C(=O)N[C@H](/C=C/C(=O)O)CCCNC(=N)N [drawing 58]

Compound: CCCCCCCC(=O)N[C@@H](Cc1ccc(O)cc1)C(=O)N[C@H](/C=C/C(=O)O)CCCNC(=N)N [drawing 64]
- Area rel. [%] (liver microsomes, NC) [1]: 104.3%

Compound: CCCCC/C=C/C(=O)N[C@@H](Cc1ccc(O)cc1)C(=O)N[C@H](/C=C/C(=O)O)CCCNC(=N)N [drawing 59]
- Area rel. [%] (liver microsomes, NC) [1]: 92.3%

Compound: CCCCC/C=C/C(=O)N[C@H](Cc1ccc(O)cc1)C(=O)N[C@H](/C=C/C(=O)O)CCCNC(=N)N [drawing 63]
- Area rel. [%] (liver microsomes, NC) [1]: 105.8%

Compound: CCCCC/C=C/C(=O)N[C@@H](Cc1ccccc1)C(=O)N[C@H](/C=C/C(=O)O)CCCNC(=N)N [drawing 53]
- Area rel. [%] (GSH assay, NC) (Glutathione (GSH) assay): 101.8%
- Area rel. [%] (GSH assay) (Glutathione (GSH) assay; pH 7.4, time 30 min): 102.7%
- Area rel. [%] (GSH assay) (Glutathione (GSH) assay; pH 7.4, time 90 min): 106.2%

Compound: CCCCC/C=C/C(=O)N[C@@H](Cc1ccc(O)cc1)C(=O)N[C@@H](/C=C/C(=O)O)CCCNC(=N)N [drawing 62]
- Area rel. [%] (liver microsomes, NC) [1]: 102.8%

Compound: CCCCC/C=C/C(=O)N[C@@H](Cc1ccccc1)C(=O)N[C@H](/C=C/C(=O)O)CCCNC(=N)N [drawing 47]
- inhibition (Cathepsin B): 41%
- inhibition (hCatL): 90%

Compound: CCCCCCCC(=O)N[C@@H](Cc1ccc(O)cc1)C(=O)N[C@H](/C=C/C(=O)O)CCCNC(=N)N [drawing 50]
- inhibition (Cathepsin B): 30%
- inhibition (hCatL): 80%

- Area rel. [%] (liver microsomes, NC) [1]: 111.9%
Compound: CC(=O)N[C@@H](Cc1ccc(O)cc1)C(=O)N[C@H](/C=C/C(=O)O)CCCNC(=N)N [drawing 66]

Compound: CC(C)CC(=O)N[C@H](C(=O)N[C@H](C(=O)N[C@@H](CC(C)C)[C@@H](O)CC(=O)N[C@@H](C)C(=O)N[C@@H](CC(C)C)[C@@H](O)CC(=O)O)C(C)C)C(C)C [pepstatin A, reference compound] (Isovaleryl-VV[Sta]A[Sta]-OH)
- inhibited enzyme activity (pepsin), control inhibitor (pepsin): > 95%

Compound: CCCCCCCC(=O)N[C@@H](Cc1ccc(O)cc1)C(=O)N[C@@H](CCCNC(=N)N)CCC(=O)O [drawing 65]
- Area rel. [%] (liver microsomes, NC) [1]: 99.5%

Compound: CCCCC/C=C/C(=O)N[C@@H](Cc1ccccc1)C(=O)N[C@H](/C=C/C(=O)O)CCCNC(=N)N [drawing 61]
- Area rel. [%] (liver microsomes, NC) [1]: 89.2%

Compound: CCCCC/C=C/C(=O)N[C@H](Cc1ccc(O)cc1)C(=O)N[C@H](/C=C/C(=O)O)CCCNC(=N)N [drawing 55]
- Area rel. [%] (GSH assay, NC) (Glutathione (GSH) assay): 91.9%
- Area rel. [%] (GSH assay) (Glutathione (GSH) assay; pH 7.4, time 90 min): 98.6%

Compound: CCCCC/C=C/C(=O)N[C@@H](Cc1ccc(O)cc1)C(=O)N[C@@H](/C=C/C(=O)O)CCCCN [drawing 46]
- inhibition (Cathepsin B): 73%
- inhibition (hCatL): 96%
